Laboratory results taken from patent US7598255B2 (Janssen Pharmaceutica NV, priority 2005, dated 2009).
Counter-ions that a name gives are not always drawn.

Key:
[1] = target: 5-HT2B receptor (Homo sapiens, UniProt P41595); assay: Affinity for 5HT2 receptor binding sites, h5-HT2B, [3H]mesulergine; conditions: CHO h5-HT2B membranes
[2] = target: 5-HT2A receptor (Homo sapiens, UniProt P28223); assay: Affinity for 5-HT2A receptor binding sites, radioligand binding with [3H]ketanserin; conditions: read-out: Ki 5-HT2A, rat cortex membranes (assay 2) or NIH3T3 h5-HT2A membranes (assay 3), table does not say which
[3] = target: T1, human recombinant 5-HT2C receptor (Homo sapiens, UniProt P28335); assay: Affinity for 5HT2 receptor binding sites, h5-HT2C, [3H]mesulergine; conditions: CHO h5-HT2C membranes
T1 sequence (P28335 33-458): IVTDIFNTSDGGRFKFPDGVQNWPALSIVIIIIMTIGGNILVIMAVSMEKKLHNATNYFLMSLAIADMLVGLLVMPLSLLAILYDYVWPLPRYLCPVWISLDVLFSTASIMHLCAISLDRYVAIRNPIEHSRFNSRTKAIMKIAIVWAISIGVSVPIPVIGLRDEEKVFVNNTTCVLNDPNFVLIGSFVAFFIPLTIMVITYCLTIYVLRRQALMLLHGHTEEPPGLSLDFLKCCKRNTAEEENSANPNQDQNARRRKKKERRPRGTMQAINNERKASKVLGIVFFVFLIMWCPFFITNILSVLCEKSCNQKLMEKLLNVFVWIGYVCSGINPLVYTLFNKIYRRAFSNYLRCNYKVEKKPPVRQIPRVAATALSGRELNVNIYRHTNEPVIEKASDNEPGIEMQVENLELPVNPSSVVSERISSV
Procedure: Sigmoidal inhibition curves were generated and fitted by nonlinear regression analysis (GraphPad Prism).
Receptor binding was performed using the human recombinant 5-HT2A (GB: X57830), 5-HT2B (GB: Z36748) and 5-HT2C (GB: M81778) receptors. The affinity of the compounds for the 3 different human 5-HT2 receptor subtypes was evaluated by competitive radioligand binding assays using [^3H]ketanserin (h5-HT2A) or [^3H]mesulergine (h5-HT2B and h5-HT2C). The assays were performed on membranes prepared from NIH3T3 stably transfected with h5-HT2A or CHO stably transfected with h5-HT2B and h5-HT2C.

[4] = target: rat 5-HT7a receptor (Rattus norvegicus, UniProt P32305); assay: Affinity for 5-HT7 receptor binding sites, radioligand binding with [3H]5-CT; conditions: membranes of HEK-293 cells with rat 5-HT7a, 1 nM [3H]5-CT
Procedure: The affinity of the compounds described in this invention for the 5-HT7 receptor binding site was evaluated by single competition radioligand binding assay. The assay was performed on membranes prepared from HEK-293 cells that had been subjected to stable transfection with the rat 5-HT7a receptor (GB: NM022938). Cells were scraped from the culture plates, suspended in Tris-HCl 50 mM pH 7.5 and collected through centrifugation (1000 rpm for 5 min). The cell pellets were homogenized (Polytron, 15 s, setting 5) in 50 mM Tris-HCl (pH 7.5), 5 mM EDTA. Following centrifugation (15,000 rpm for 25 min), membranes (135 μg protein/mL) were resuspended in the same buffer and incubated for 60 min at RT with 1 nM [^3H]5-CT in the presence of increasing concentration of test compounds. Nonspecific binding was defined in the presence of 10 μM 5-HT. Incubation was stopped by rapid filtration using the cell harvester (Packard). Radioactivity was counted in a TopCount-NXT (Packard). Experiments were conducted in triplicate.

Sequence of 5-HT2B receptor (P41595 whole entry): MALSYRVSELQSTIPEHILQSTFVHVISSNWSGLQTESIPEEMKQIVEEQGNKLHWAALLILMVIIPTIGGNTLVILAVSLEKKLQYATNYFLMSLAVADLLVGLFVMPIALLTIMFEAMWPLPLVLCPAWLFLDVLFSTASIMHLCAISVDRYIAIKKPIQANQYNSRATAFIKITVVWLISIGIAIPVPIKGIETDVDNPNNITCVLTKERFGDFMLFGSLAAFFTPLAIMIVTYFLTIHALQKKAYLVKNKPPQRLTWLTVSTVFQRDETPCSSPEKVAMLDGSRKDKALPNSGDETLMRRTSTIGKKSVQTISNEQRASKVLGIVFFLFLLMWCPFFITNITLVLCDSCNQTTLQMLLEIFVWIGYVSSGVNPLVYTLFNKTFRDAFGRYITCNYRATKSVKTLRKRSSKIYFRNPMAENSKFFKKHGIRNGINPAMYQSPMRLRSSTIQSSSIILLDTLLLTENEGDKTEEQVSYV
Sequence of rat 5-HT7a receptor (P32305 whole entry): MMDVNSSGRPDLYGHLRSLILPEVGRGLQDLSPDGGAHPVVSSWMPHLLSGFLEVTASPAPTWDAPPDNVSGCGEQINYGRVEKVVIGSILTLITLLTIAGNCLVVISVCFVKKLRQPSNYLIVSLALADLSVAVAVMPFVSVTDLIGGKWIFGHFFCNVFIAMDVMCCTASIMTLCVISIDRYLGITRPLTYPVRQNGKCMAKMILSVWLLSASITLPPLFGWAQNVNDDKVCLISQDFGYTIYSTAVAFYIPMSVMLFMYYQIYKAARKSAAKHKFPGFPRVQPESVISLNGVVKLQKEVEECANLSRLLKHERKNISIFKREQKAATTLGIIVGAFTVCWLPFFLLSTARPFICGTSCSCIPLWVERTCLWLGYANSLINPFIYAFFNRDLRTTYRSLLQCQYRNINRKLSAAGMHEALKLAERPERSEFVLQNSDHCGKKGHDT

| Compound | Ki [1] [nM] | Ki [2] [nM] | Ki [3] [nM] | Ki [4] [nM] |
| --- | --- | --- | --- | --- |
| CC(C)c1nc2c(c(-c3ccccc3)n1)CNCC2 [Example 31, 2-Isopropyl-4-phenyl-5,6,7,8-tetrahydro-pyrido[4,3-d]pyrimidine] | 2000 | 70 | > 10000 | > 10000 |
| CC(C)c1nc2c(c(-c3ccc(C(F)(F)F)cc3)n1)CNCC2 [Example 32, 2-Isopropyl-4-(4-trifluoromethyl-phenyl)-5,6,7,8-tetrahydro-pyrido[4,3-d]pyrimidine] | > 10000 | 2000 | > 10000 | > 10000 |
| CC(C)c1nc2c(c(-c3ccccc3Oc3ccccc3)n1)CNCC2 [Example 33, 2-Isopropyl-4-(2-phenoxy-phenyl)-5,6,7,8-tetrahydro-pyrido[4,3-d]pyrimidine] | > 10000 | > 10000 | > 10000 | > 10000 |
| CC(C)Cc1nc2c(c(-c3ccsc3)n1)CNCC2 [Example 34, 2-Isobutyl-4-thiophen-3-yl-5,6,7,8-tetrahydro-pyrido[4,3-d]pyrimidine] | 400 | 150 | 1000 | > 10000 |
| CC(C)Cc1nc2c(c(-c3cccs3)n1)CNCC2 [Example 35, 2-Isobutyl-4-thiophen-2-yl-5,6,7,8-tetrahydro-pyrido[4,3-d]pyrimidine] | 400 | 70 | 2000 | 500 |
| CC(C)Cc1nc2c(c(-c3ccncc3)n1)CNCC2 [Example 36, 2-Isobutyl-4-pyridin-4-yl-5,6,7,8-tetrahydro-pyrido[4,3-d]pyrimidine] | > 10000 | > 10000 | > 10000 | > 10000 |
| Cc1ccc(-c2nc(CC(C)C)nc3c2CNCC3)cc1 [Example 38, 2-Isobutyl-4-p-tolyl-5,6,7,8-tetrahydro-pyrido[4,3-d]pyrimidine] | 50 | 40 | 800 | > 10000 |
| Cc1cc(-c2nc(CC(C)C)nc3c2CNCC3)ccc1F [Example 39, 4-(4-Fluoro-3-methyl-phenyl)-2-isobutyl-5,6,7,8-tetrahydro-pyrido[4,3-d]pyrimidine] | > 10000 | 150 | > 10000 | > 10000 |
| CC(C)Cc1nc2c(c(-c3ccc(C#N)cc3)n1)CNCC2 [Example 40, 4-(2-Isobutyl-5,6,7,8-tetrahydro-pyrido[4,3-d]pyrimidin-4-yl)-benzonitrile] | > 10000 | 500 | > 10000 | > 10000 |
| COc1ccc(-c2nc(CC(C)C)nc3c2CNCC3)cc1 [Example 41, 2-Isobutyl-4-(4-methoxy-phenyl)-5,6,7,8-tetrahydro-pyrido[4,3-d]pyrimidine] | 5000 | 2000 | 5000 | > 10000 |
| CCC(C)c1nc2c(c(-c3ccccc3F)n1)CNCC2 (centres unmarked) [Example 42, 2-sec-Butyl-4-(2-fluoro-phenyl)-5,6,7,8-tetrahydro-pyrido[4,3-d]pyrimidine hydrochloride] | > 10000 | 120 | > 10000 | > 10000 |
| CCC(C)c1nc2c(c(-c3cccc(F)c3)n1)CNCC2 (centres unmarked) [Example 43, 2-sec-Butyl-4-(3-fluoro-phenyl)-5,6,7,8-tetrahydro-pyrido[4,3-d]pyrimidine] | > 10000 | 200 | > 10000 | > 10000 |
| CCC(C)c1nc2c(c(-c3ccc(OC)cc3)n1)CNCC2 (centres unmarked) [Example 44, 2-sec-Butyl-4-(4-methoxy-phenyl)-5,6,7,8-tetrahydro-pyrido[4,3-d]pyrimidine] | 500 | 400 | 1000 | > 10000 |
| CCC(C)c1nc2c(c(-c3ccc(OC(F)(F)F)cc3)n1)CNCC2 (centres unmarked) [Example 45, 2-sec-Butyl-4-(4-trifluoromethoxy-phenyl)-5,6,7,8-tetrahydro-pyrido[4,3-d]pyrimidine] | > 10000 | > 10000 | > 10000 | > 10000 |
| Cc1nc2c(c(-c3ccc(Cl)cc3)n1)CCNCC2 [Example 51, 4-(4-Chloro-phenyl)-2-methyl-6,7,8,9-tetrahydro-5H-pyrimido[4,5-d]azepine] | 140 | 470 | 9000 | > 10000 |
| Cc1nc2c(c(-c3ccccc3)n1)CCNCC2 [Example 52, 2-Methyl-4-phenyl-6,7,8,9-tetrahydro-5H-pyrimido[4,5-d]azepine] | 1150 | 725 | 9000 | > 10000 |
| Cc1nc2c(c(-c3cccc(Cl)c3)n1)CCNCC2 [Example 53, 4-(3-Chloro-phenyl)-2-methyl-6,7,8,9-tetrahydro-5H-pyrimido[4,5-d]azepine] | > 10000 | 1000 | > 10000 | > 10000 |
| Cc1ccc(-c2nc(C(C)C)nc3c2CCCNC3)cc1 [Example 66, 2-Isopropyl-4-p-tolyl-6,7,8,9-tetrahydro-5H-pyrimido[4,5-c]azepine hydrochloride] | 30 | 8 | 145 | 300 |
| COc1ccc(-c2nc(C(C)C)nc3c2CCCNC3)cc1 [Example 67, 2-Isopropyl-4-(4-methoxy-phenyl)-6,7,8,9-tetrahydro-5H-pyrimido[4,5-c]azepine] | 80 | 56 | 495 | 5400 |
| CC(C)c1nc2c(c(-c3ccccc3)n1)CCCNC2 [Example 68, 2-Isopropyl-4-phenyl-6,7,8,9-tetrahydro-5H-pyrimido[4,5-c]azepine] | 660 | 80 | 7100 | > 10000 |
| c1ccc(Cc2nc3c(c(-c4ccccc4)n2)CCN(Cc2ccccc2)C3)cc1 [Example 72, 2,7-Dibenzyl-4-phenyl-5,6,7,8-tetrahydro-pyrido[3,4-d]pyrimidine] | > 10000 | 130 | > 10000 | > 10000 |
| COc1ccc(-c2nc(Cc3ccccc3)nc3c2CCN(Cc2ccccc2)C3)cc1 [Example 73, 2,7-Dibenzyl-4-(4-methoxy-phenyl)-5,6,7,8-tetrahydro-pyrido[3,4-d]pyrimidine] | > 10000 | 140 | > 10000 | > 10000 |
| CC(C)c1nc2c(c(-c3ccc(F)cc3)n1)CCN(Cc1ccccc1)C2 [Example 74, 7-Benzyl-4-(4-fluoro-phenyl)-2-isopropyl-5,6,7,8-tetrahydro-pyrido[3,4-d]pyrimidine] | 1900 | 47 | > 10000 | > 10000 |
| CC(C)c1nc2c(c(-c3ccccc3)n1)CCN(Cc1ccccc1)C2 [Example 75, 7-Benzyl-2-isopropyl-4-phenyl-5,6,7,8-tetrahydro-pyrido[3,4-d]pyrimidine] | 3000 | 70 | > 10000 | 5000 |
| COc1ccc(-c2nc(Cc3ccccc3)nc3c2CCNC3)cc1 [Example 79, 2-Benzyl-4-(4-methoxy-phenyl)-5,6,7,8-tetrahydro-pyrido[3,4-d]pyrimidine] | 435 | 115 | 900 | 300 |
| CC(C)c1nc2c(c(-c3ccccc3)n1)CCNC2 [Example 81, 2-Isopropyl-4-phenyl-5,6,7,8-tetrahydro-pyrido[3,4-d]pyrimidine] | 450 | 25 | 6000 | > 10000 |
| CC(C)c1nc2c(c(-c3ccc(F)cc3)n1)CCN(C)C2 [Example 84, 4-(4-Fluoro-phenyl)-2-isopropyl-7-methyl-5,6,7,8-tetrahydro-pyrido[3,4-d]pyrimidine hydrochloride] | 400 | 14 | 5000 | > 10000 |
| CC(C)c1nc2c(c(-c3ccccc3)n1)CCN(C)C2 [Example 85, 2-Isopropyl-7-methyl-4-phenyl-5,6,7,8-tetrahydro-pyrido[3,4-d]pyrimidine] | 1150 | 82 | > 10000 | > 10000 |
| Cc1cc(-c2nc(C(C)C)nc3c2CCN(Cc2ccccc2)C3)cs1 [Example 86, 7-Benzyl-2-isopropyl-4-(5-methyl-thiophen-3-yl)-5,6,7,8-tetrahydro-pyrido[3,4-d]pyrimidine hydrochloride] | 4100 | 100 | > 10000 | 9000 |
